The values below come from patent US8703720B2, “Galactoside inhibitors of galectins” (Galecto Biotech AB, priority 2009, dated 2014).

For one assay, the target named is galectin-1 (Homo sapiens (Human), UniProt P09382). In words: Fluorescence polarization-based galectin-1 inhibition assay. The assay is classed as binding. The conditions noted are these: calculated from test by fluorescence polarization at the tested conc. The text has this:
(§1) The known galectin inhibitors galactose and N-acetyllactosamine methyl glycosides were included as reference compounds.
(§2) Identification of the substances was made by HRMS (Micromass Q-tof micro) and NMR (Bruker Ultrashield 400 plus, 400 MHz). Chemical shifts are reported downfield from Me4Si using residual CHD2Cl (7.26 ppm) or CHD2OD (3.35 ppm) as reference. Chemical shifts and coupling constants were obtained from ^1H-NMR and proton resonances were assigned from COSY experiments. Purification was made by RF-HPLC (Beckman, system gold) or flash chromatography, using silica gel (Davisil 35-70 μm, 60 Å). Reactions were followed by TLC (Aluminum sheet, silica gel 60 F254) observed by UV light, H2SO4(aq) or a iso-vanillin/H2SO4/EtOH solution. THF and Et2O were dried over sodium/benzophenone and distilled. CH2Cl2 was dried by molecular sieves (4 Å, 1.6 mm). Other solvents and reagents were commercially available and used without further purifications. Fluorescence polarization experiments were performed on a PolarStar instrument (BMG, Offenburg; Germany). Evaluation of 7, 15-19, and 22 as inhibitors of galectins was performed by use of fluorescence polarization as described in the literature (Sörme et al., 2003a, 2004).

The next assay has as its target galectin-3 (Homo sapiens (Human), UniProt P17931). The experiment in a line: Fluorescence polarization-based galectin-3 inhibition assay. The assay is classed as binding. The conditions noted are these: calculated from test by fluorescence polarization at the tested conc.
Excerpt: as §1, §2

The next assay deals with galectins. The conditions noted are these: all galectins, cited from earlier work.

galectin-3, sequence (P17931 whole entry): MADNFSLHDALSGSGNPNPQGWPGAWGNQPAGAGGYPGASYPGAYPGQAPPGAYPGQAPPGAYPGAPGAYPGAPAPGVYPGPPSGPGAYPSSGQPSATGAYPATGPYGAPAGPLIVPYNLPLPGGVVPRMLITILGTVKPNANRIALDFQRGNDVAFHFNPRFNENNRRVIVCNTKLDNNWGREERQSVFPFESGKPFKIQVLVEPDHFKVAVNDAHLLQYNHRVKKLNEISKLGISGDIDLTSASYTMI
galectin-1, sequence (P09382 whole entry, species assumed): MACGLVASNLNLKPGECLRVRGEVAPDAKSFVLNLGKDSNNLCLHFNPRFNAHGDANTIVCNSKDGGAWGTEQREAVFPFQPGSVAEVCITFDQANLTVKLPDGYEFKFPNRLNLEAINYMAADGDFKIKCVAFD

As for `CCCNC(=O)c1cn(C2CCC[C@@H](S[C@@H]3OC(CO)[C@H](O)[C@H](n4cc(C(=O)NCCC)nn4)C3O)C2O)nn1` (stereo partly drawn) [Compound 19, ((1R,2R,3S)-2-hydroxy-3-(4-(propylcarbamoyl)-1H-1,2,3-triazol-1-yl)-cyclohexyl)-3-deoxy-3-(4-(propylcarbamoyl)-1H-1,2,3-triazol-1-yl)-thio-β-D-galactopyranoside], the Kd (usually the free concentration of one partner at which half of the binding sites on the other are occupied at equilibrium, for simple one-to-one binding) on galectin-1 is 1.3 µM; on galectin-3, 0.19 µM. With `OC[C@H]1O[C@@H](S[C@@H]2CCC[C@H](n3cc(-c4ccsc4)nn3)[C@H]2O)[C@H](O)[C@@H](n2cc(-c3ccsc3)nn2)[C@H]1O` [Compound 18, ((1R,2R,3S)-2-hydroxy-3-(4-(3-thiopheneyl)-1H-1,2,3-triazol-1-yl)-cyclohexyl) 3-deoxy-3-(4-(3-thienyl)-1H-1,2,3-triazol-1-yl)-1-thio-β-D-galactopyranoside], the dissociation constant Kd at galectin-1 was 0.35 µM; on galectin-3 it was 0.55 µM. In the case of `OC[C@H]1O[C@@H](S[C@@H]2CCC[C@H](n3cc(-c4cccc(F)c4)nn3)[C@H]2O)[C@H](O)[C@@H](n2cc(-c3cccc(F)c3)nn2)[C@H]1O` [Compound 16, ((1R,2R,3S)-2-hydroxy-3-(4-(3-fluorophenyl)-1H-1,2,3-triazol-1-yl)-cyclohexyl) 3-deoxy-3-(4-(3-fluorophenyl)-1H-1,2,3-triazol-1-yl)-1-thio-β-D-galactopyranoside], the dissociation constant (Kd) on galectin-1 is 1.5 µM. In the case of `OC[C@H]1O[C@@H](S[C@@H]2CCC[C@H](n3cc(-c4ccccc4F)nn3)[C@H]2O)[C@H](O)[C@@H](n2cc(-c3ccccc3F)nn2)[C@H]1O` [Compound 15, ((1R,2R,3S)-2-hydroxy-3-(4-(2-fluorophenyl)-1H-1,2,3-triazol-1-yl)-cyclohexyl) 3-deoxy-3-(4-(2-fluorophenyl)-1H-1,2,3-triazol-1-yl)-1-thio-β-D-galactopyranoside], the dissociation constant (Kd) on galectin-1 is 1.9 µM; at galectin-3 it was 0.23 µM. On to `OC[C@H]1O[C@@H](S[C@@H]2CCC[C@H](n3cc(-c4ccc(F)cc4)nn3)[C@H]2O)[C@H](O)[C@@H](n2cc(-c3ccc(F)cc3)nn2)[C@H]1O` [Compound 17, ((1R,2R,3S)-2-hydroxy-3-(4-(4-fluorophenyl)-1H-1,2,3-triazol-1-yl)-cyclohexyl) 3-deoxy-3-(4-(4-fluorophenyl)-1H-1,2,3-triazol-1-yl)-1-thio-β-D-galactopyranoside], for which the Kd is 1.2 µM at galectin-1 and 0.21 µM at galectin-3. In the case of `O=C[C@H](O)[C@@H](O)[C@@H](O)[C@H](O)CO` [D-galactose], the “affinity relative to lactose” value in the assay with galectins (compared with lactose) is reported as 50-100 times lower. On to `OC[C@H]1O[C@@H](O[C@H]2[C@H](O)[C@@H](O)C(O)O[C@@H]2CO)[C@H](O)[C@@H](O)[C@H]1O` (some centres unmarked) [lactose], for which, at galectins, the dissociation constant (Kd) was 500 to 1000 µM. As for `O=C(NC1CCC[C@@H](S[C@@H]2OC(CO)[C@H](O)[C@H](NC(=O)c3ccc(Cl)cc3)C2O)C1O)c1ccc(Cl)cc1` (stereo partly drawn) [Compound 23, ((1R,2R,3S)-2-hydroxy-3-(4-chlorobenzamido)-cyclohexyl)-3-deoxy-3-(4-chlorobenzamido)-thio-β-D-galactopyranoside], the Kd on galectin-1 is 6.3 µM; at galectin-3, 1.4 µM. Turning to `CCCNC(=O)c1cn([C@H]2[C@@H](O)[C@@H](CO)O[C@@H](O[C@@H]3CCC[C@H](n4cc(C(=O)NCCC)nn4)[C@H]3O)[C@@H]2O)nn1` [Compound 7, ((1R,2R,3S)-2-hydroxy-3-(4-(N-(1-propyl)-carbamoyl)-1H-1,2,3-triazol-1-yl)cyclohexyl) 3-deoxy-(3-(4-(N-(1-propyl)-carbamoyl)-1H-1,2,3-triazol-1-yl))-β-D-galactopyranoside], the Kd on galectin-3 is 0.43 µM.
